Laboratory results as given in ChEMBL document CHEMBL1201862, “PubChem BioAssay data set” (2004).
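Where inhibition never reached the appropriate level, the endpoint shown equals the highest concentration tested. Otherwise, values were interpolated linearly from a five-concentration, 48-hour dose response in 96-well plates. GI50 is the concentration that inhibits growth by half.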 The source made the active and inactive calls. No stated cut-off is given here; in the data, active = GI50 up to about 1.1 µM and inactive = higher.

How the values were obtained:
Assay in all cases: NCI anticancer screen, dose series, 48 h
A549 = system: A549
BT-549 = system: BT-549
CAKI-1 = system: CAKI-1
HCT-116 = system: HCT-116
HCT-15 = system: HCT-15
HL-60 = system: HL-60
Hs-578T = system: Hs-578T
KM12 = system: KM12
M14 = system: M14
MDA-MB-435 = system: MDA-MB-435
MDA-N = system: MDA-N
NCI-H460 = system: NCI-H460
NCI-H522 = system: NCI-H522
NCI/ADR-RES = system: NCI/ADR-RES
SK-OV-3 = system: SK-OV-3
SNB-19 = system: SNB-19
TK-10 = system: TK-10
HT-29 = system: HT-29
OVCAR-3 = system: OVCAR-3

Compound	GI50 (A549)	GI50 (BT-549)	GI50 (CAKI-1)	GI50 (HCT-116)	GI50 (HCT-15)	GI50 (HL-60)	GI50 (Hs-578T)	GI50 (KM12)	GI50 (M14)	GI50 (MDA-MB-435)	GI50 (MDA-N)	GI50 (NCI-H460)	GI50 (NCI-H522)	GI50 (NCI/ADR-RES)	GI50 (SK-OV-3)	GI50 (SNB-19)	GI50 (TK-10)	GI50 (HT-29)	GI50 (OVCAR-3)
O=[N+]([O-])c1ccc(NC(=S)N/N=C(\c2ccccc2)c2ccccn2)cc1	1.82 µM (inactive)	1.63 µM (inactive)	1.6 µM (inactive)	1.49 µM (inactive)	0.119 µM	< 0.0129 µM (active)	3.3 µM (inactive)	1.7 µM (inactive)	1.02 µM (active)	1.74 µM (inactive)	1.6 µM (inactive)	4.85 µM (inactive)	0.12 µM (active)	2.04 µM (inactive)	1.4 µM (inactive)	1.58 µM (inactive)	1.24 µM (inactive)		
O=CC1OC(=O)c2cc(O)c(O)c(O)c2-c2c(cc(O)c(O)c2O)C(=O)OC1C(O)C(O)CO (configuration not stated)	49.8 µM (inactive)	51.4 µM (inactive)	19.1 µM (inactive)	28.1 µM (inactive)	69.2 µM	35.4 µM (inactive)	54 µM (inactive)	41.5 µM (inactive)	35 µM (inactive)	18.3 µM (inactive)	18.7 µM (inactive)	28.8 µM (inactive)	31 µM (inactive)	76.9 µM (inactive)		> 100 µM (inactive)	19.5 µM (inactive)	22 µM (inactive)	71 µM (inactive)
CCn1c(=O)c2c3ccc(O)cc3[nH]c2c2ccc(O)cc21	> 100 µM (inactive)	> 100 µM (inactive)	> 100 µM (inactive)	45.4 µM (inactive)	> 100 µM		44.1 µM (inactive)	> 100 µM (inactive)	> 100 µM (inactive)	61 µM (inactive)	66.4 µM (inactive)		93.3 µM (inactive)	> 100 µM (inactive)	> 100 µM (inactive)	> 100 µM (inactive)	> 100 µM (inactive)	> 100 µM (inactive)	> 100 µM (inactive)
O=C(O)c1cc([N+](=O)[O-])cc2c(=O)c3cnccc3[nH]c12		> 100 µM (inactive)	> 100 µM (inactive)	> 100 µM (inactive)	> 100 µM	> 100 µM (inactive)	> 100 µM (inactive)	> 100 µM (inactive)	> 100 µM (inactive)	> 100 µM (inactive)	> 100 µM (inactive)	> 100 µM (inactive)	> 100 µM (inactive)	> 100 µM (inactive)	> 100 µM (inactive)	> 100 µM (inactive)		> 100 µM (inactive)	> 100 µM (inactive)
Cc1cnoc1/N=C1\C=C(O)C(=O)c2ccccc21	6.7 µM (inactive)	4.9 µM (inactive)	28.6 µM (inactive)	19.9 µM (inactive)	12.2 µM	10 µM (inactive)	7.6 µM (inactive)	11.9 µM (inactive)	12.5 µM (inactive)	1.31 µM (inactive)	1.26 µM (inactive)	6.32 µM (inactive)	34.5 µM (inactive)	8.45 µM (inactive)	> 100 µM (inactive)	16.3 µM (inactive)	> 100 µM (inactive)	29 µM (inactive)	5.26 µM (inactive)
CC1=NN=C(N)N/C1=C/C(Sc1ccc(Cl)cc1)c1cccs1 (configuration not stated)	10.3 µM (inactive)	37.9 µM (inactive)	15.7 µM (inactive)	13.6 µM (inactive)	6.12 µM	4.07 µM (inactive)	17 µM (inactive)	11.1 µM (inactive)	13.4 µM (inactive)	13.3 µM (inactive)	16.1 µM (inactive)	13.6 µM (inactive)	4.65 µM (inactive)	18.5 µM (inactive)	12 µM (inactive)	16.7 µM (inactive)	36.2 µM (inactive)	12.3 µM (inactive)	
Cc1cccc2c1[nH]c1[nH]c(=O)[nH]c(=O)c12	> 100 µM (inactive)	> 100 µM (inactive)	> 100 µM (inactive)	> 100 µM (inactive)	> 100 µM	> 100 µM (inactive)	53.3 µM (inactive)	> 100 µM (inactive)	> 100 µM (inactive)	> 100 µM (inactive)	> 100 µM (inactive)		> 100 µM (inactive)	> 100 µM (inactive)	> 100 µM (inactive)	> 100 µM (inactive)	> 100 µM (inactive)	> 100 µM (inactive)	30.7 µM (inactive)
COc1cc(/C=N/NC(=O)c2c(Cl)c(Cl)c(Cl)c(Cl)c2-c2nc3cc(C(=O)c4ccccc4)ccc3[nH]2)ccc1O	42.1 µM (inactive)	32.7 µM (inactive)	62.2 µM (inactive)	36.1 µM (inactive)	15.6 µM	19.2 µM (inactive)	60 µM (inactive)	46.5 µM (inactive)	34.3 µM (inactive)	13.8 µM (inactive)	16.1 µM (inactive)		22.1 µM (inactive)	20.9 µM (inactive)	56.4 µM (inactive)	62.1 µM (inactive)	45.5 µM (inactive)	40.1 µM (inactive)	40 µM (inactive)
